Molecules are shown by their SMILES.

In the first assay the test system is ornithine decarboxylase (ODC). As to the kind of experiment: ODC assay: inhibition of TPA induction of ornithine decarboxylase (ODC) activity. The format is biochemical. The note with it: 60% inhibition in the ODC assay (TPA induction). The text has this: A classic measure of retinoic acid activity involves measuring the effects of retinoic acid on ornithine decarboxylase. The original work on the correlation between retinoic acid and decrease in cell proliferation was done by Verma & Boutwell, Cancer Research, 1977, 37,2196-2201. That reference discloses that ornithine decarboxylase (ODC) activity increased precedent to polyamine biosynthesis. It has been established elsewhere that increases in polyamine synthesis can be correlated or associated with cellular proliferation. Thus, if ODC activity could be inhibited, cell hyperproliferation could be modulated. Although all cases for ODC activity increases are unknown, it is known that 12-0-tetradecanoylphorbol-13-acetate (TPA) induces ODC activity. Retinoic acid inhibits this induction of ODC activity by TPA. […] Activity of exemplary compounds of the present invention in the above-described ODC assay is disclosed in Table 1 which provides the IC60 concentration for the respective exemplary compound. ("IC60 " is that concentration of the test compound which causes 60% inhibition in the ODC assay. By analogy, "IC80, for example, is that concentration of the test compound which causes 80% inhibition in the ODC assay.)
In turn, `CCOC(=O)c1ccc(/N=N/c2ccc3c(c2)C(OCOC)CCC3(C)C)cc1` (racemic) [Compound D6, (+/-) ethyl 4-[(5,5-dimethyl-8-(methoxymethyloxy)-5,6,7,8-tetrahydronaphthalen-2-yl)azo]benzoate] gave an IC60 of 1.9 nmols.
With `CCO/N=C1\CCC(C)(C)c2ccc(/C=C/c3ccc(C(=O)OCC)cc3)cc21` [Compound A5, ethyl (E)-4-[2-(5,5-dimethyl-5,6-dihydro-8(7H)-anti-(O-ethyl oxime)-naphthalen-2-yl)ethenyl]-benzoate], the IC60 came to 10.3 nmols.
The same measure, in the same setting: the same measure for `CCOC(=O)c1ccc(/C=C/c2ccc3c(c2)C2(CCC3(C)C)SCCCS2)cc1` [Compound A23]: 43.7 nmols; for `CCO/N=C1\CCC(C)(C)c2ccc(/C(C)=C/C=C/C(C)=C/C(=O)OCC)cc21` [Compound C22b, Ethyl 7-[4,4-dimethyl-3,4-dihydro-1(2H)-anti-(O-ethyl oxime)-naphth-7-yl]3,7-dimethyl-hepta-2(E),4(E),6(E)-trienoate]: 10 nmols.

Still in this assay, the particulars now being: 80% inhibition in the ODC assay (TPA induction); printed in the IC60 column marked (IC80).
Compound `CCOC(=O)c1ccc(/C=C/c2ccc3c(c2)C(Sc2ccccc2)=CCC3(C)C)cc1` [Compound A16, ethyl (E)-4-[2-(5,6-dihydro-5,5-dimethyl-8-(phenylthio)-naphthalen-2-yl)ethenyl]benzoate] yielded an IC80 of 4.3 nmols.
The same measure, in the same setting: the same measure for `CC1(C)CC=C(c2cccs2)c2ccc(C(=O)/C=C/c3ccc(C(=O)O)cc3)cc21` [Compound D34, 4-[3-oxo-3-(7,8-dihydro-5-(2-thienyl)-8.8-dimethyl-2-naphthalenyl) - 1-propenyl]-benzoic acid]: 4.3 nmols.

The values are drawn from patent publication US5808124A, “O- or S-substituted dihydronaphthalene derivatives having retinoid and/or retinoid antagonist-like biological activity” (Allergan, priority 1996, dated 1998).
